The target in this test is T1, Interleukin-23 receptor (Homo sapiens, UniProt Q5VWK5).
T1 sequence (Q5VWK5 whole entry): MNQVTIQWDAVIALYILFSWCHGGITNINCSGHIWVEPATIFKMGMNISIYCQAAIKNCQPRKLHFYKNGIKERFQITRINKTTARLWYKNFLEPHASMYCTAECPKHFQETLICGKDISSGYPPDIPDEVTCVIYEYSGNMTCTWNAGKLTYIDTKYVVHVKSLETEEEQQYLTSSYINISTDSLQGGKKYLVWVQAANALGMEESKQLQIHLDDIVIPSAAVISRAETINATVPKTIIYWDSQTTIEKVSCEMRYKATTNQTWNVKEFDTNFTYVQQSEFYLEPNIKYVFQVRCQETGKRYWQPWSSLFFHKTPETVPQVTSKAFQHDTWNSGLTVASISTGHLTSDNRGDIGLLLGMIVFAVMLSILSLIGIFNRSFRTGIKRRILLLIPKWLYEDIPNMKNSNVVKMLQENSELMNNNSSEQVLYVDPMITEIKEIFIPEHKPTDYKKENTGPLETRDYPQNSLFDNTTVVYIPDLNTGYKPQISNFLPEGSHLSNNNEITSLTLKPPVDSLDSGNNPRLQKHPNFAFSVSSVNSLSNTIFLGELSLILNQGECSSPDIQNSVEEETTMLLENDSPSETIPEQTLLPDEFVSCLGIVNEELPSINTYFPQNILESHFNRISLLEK
As to the kind of experiment: Binding affinity to Interleukin-23 receptor in HEK293 cells transfected with firefly luciferase reporter incubated for 5 hrs by luminescence based analysis. It is filed as cell-based. (A reporter such as luciferase makes a cellular process visible.)

`CC(=O)NCCCC[C@@H]1NC(=O)[C@H](Cc2c[nH]c3c(C)cccc23)NC(=O)[C@H]([C@@H](C)O)NC(=O)[C@H](CC(N)=O)NC(=O)[C@@H](NC(=O)CCOCCOCC[N+](C)(C)C)C(C)(C)SSC(C)(C)[C@@H](C(=O)N[C@@H](Cc2ccc(OCCN)cc2)C(=O)N[C@@H](Cc2ccc3ccccc3c2)C(=O)NC2(C(=O)N[C@@H](CCC(=O)O)C(=O)N[C@@H](CC(N)=O)C(=O)N[C@@H](Cc3cccnc3)C(=O)N(C)CC(N)=O)CCOCC2)NC1=O` yielded an IC50 of 12 nM.

Usually IC50 stands for the midpoint of a concentration-inhibition curve.

The values are drawn from ChEMBL document CHEMBL6109160, “Novel Cyclic Peptides as Interleukin-23 Inhibitor for Treating Inflammatory Disorders” (ACS Med Chem Lett, 2025).
